Legend:
[1] = tested on: Smad2 targets (MMP2, Goosecoid, Furin, MixL); test: RT-PCR/qPCR of Smad2 responsive genes in AKR-2B cells; format: cell-based; conditions: 5 ng/mL TGFβ, 24 hours
Procedure: FIGS. 2A-C. TAT-SH3 inhibits Smad3-dependent responses. (A) AKR-2B cells were transiently transfected with a Smad3 (3TP), Smad2 (ARE), or Smad1/5/8 (BRE) reporter construct, and luciferase activity determined following 12 hours incubation in the absence (−) or presence (+) of the indicated ligand (5 ng/mL TGFβ; 10 ng/mL BMP4) or TAT-SNX9(SH3) fusion polypeptide (1.5 μM). Data represent the mean+/−SEM of three experiments. (B) RT-PCR analysis of Smad3 (PAI-1 and CTGF) and Smad2 (MMP2) responsive gene following 24 hour treatment of AKR-2B cells with the indicated concentration of TAT-SNX9(SH3) fusion polypeptide or 5 ng/mL TGFβ. Loading was verified by GAPDH expression. (C) Soft agar colony formation was performed following seven days growth in the presence (+) or absence (−) of TGFβ (10 ng/mL) or the indicated TAT-SNX9(SH3) fusion polypeptide (1.5 μM). […]
FIGS. 3A-E. Inhibition of Smad3 signaling by a defined region of the SH3 domain in SNX9. […] (B) Nuclear fractions were prepared and assessed as in FIG. 1B following transduction with the indicated TAT-SNX9(SH3) fusion polypeptide (Left). Quantitation (mean+/−sd) of nuclear pSmad2 or pSmad3 from 2 experiments (Right). (C) Immunofluorescence of nuclear Smad3 was determined as in FIG. 1C from 30 cells in each of two experiments in the absence (−) or presence (+) of 5 ng/mL TGFβ and the indicated TAT-SNX9(SH3) fusion polypeptide (1.5 μM). […]

AKR-2B cells = test: Smad3-regulated biological responses: scratch assays and soft agar colony formation; format: cell-based; conditions: FIGS. 4C and 4D: scratch assay (5 ng/mL TGFβ, 24 hours) and soft agar
Procedure: FIGS. 4A-E. A point mutant of TAT-SH3-2 abolishes the inhibitory action on Smad3 responses. (A) Schematic depicting TAT-SNX9(SH3) fusion polypeptide constructs (Left). * in SH3-2M (mutant) reflects G to V mutations at amino acids 36-38. His pull down of pSmad3 bound to TAT-SNX9(SH3) fusion polypeptides was performed as in FIG. 3A (Middle). AKR-2B cells were transduced for 90 minutes with 1.5 μM of TAT-SH3-2, TAT-SH3-2M, or TAT-LC. Western analysis was performed for the indicated proteins following 24 hour treatment in the absence (−) or presence (+) of TGFβ (5 ng/mL) or SB431542 (10 μM) (Right). (B) qPCR of Smad3 (CTGF and Smad7) and Smad2 (Goosecoid and MixL) responsive genes as in FIG. 3D. Data reflect mean+/−sd from three experiments. […] (E) AKR-2B cells were transiently transfected with a BMP (BRE), EGF (SRE), or PDGF (MMP-1) reporter construct and luciferase activity determined following 12 hour incubation in the absence (−) or presence (+) of the indicated ligand (10 ng/mL BMP4, EGF, or PDGF), inhibitor (10 μM Dorsomophin; 3 μM Lapatinib; 2 μM CP868) or TAT-SNX9(SH3) fusion polypeptide (1.5 μM). […]
Soft agar assays were performed as described elsewhere (Rahimi et al., Cancer Res., 69(1):84-93 (2009)). […] Following 7 days growth at 37° C., the number of colonies>100 μm in diameter were counted using an Optronix Gelcount™ (Oxford Optronics, Milton, Abingdon, UK). […]

TAT-SH3-2M: TAT-SH3-2 with G to V point mutations at amino acids 36-38; inactive TAT-SNX9 peptide unable to bind pSmad3 (TVNEGEIITITNPDVVVVWLEGRNIKGERGL; left off: small tags and cut ends)
induction of Smad2 targets [1]: Neither polypeptide impacted the induction of Smad2 targets
Smad3-regulated biological responses (AKR-2B cells): not inhibitory

TAT-SH3-2: TAT-SNX9(SH3) fusion polypeptide having SNX9 amino acids 21-51 (31 mer) (TVNEGEIITITNPDVGGGWLEGRNIKGERGL; left off: small tags and cut ends)
induction of Smad2 targets [1]: Neither polypeptide impacted the induction of Smad2 targets
Smad3-regulated biological responses (AKR-2B cells): inhibitory

Source: patent US10144929B2, “Polypeptide inhibitors of Smad3 polypeptide activities” (Mayo Foundation for Medical Education and Research, priority 2016, dated 2018)
